Columns and labels:
[1] = mouse, in vivo
[2] = test system: macrophages in BCA atherosclerotic plaque; experiment: Example 3 second part: immunohistochemical detection of macrophages (Mac-3) in atherosclerotic plaque in BCA; type: in vivo, mice; settings: high dose (10 mg/kg b.w./day)
Procedure: For detection of macrophages in BCA, atherosclerotic plaque immunohistochemical staining was performed. After heat-induce epitope retrieval, with 10 mM sodium citrate buffer (pH 6), deparaffinised sections were blocked with 5% normal goat serum and 1% hydrogen peroxide. […] Next, sections were treated with biotinylated secondary antibody, followed by horseradish peroxidase-conjugated streptavidin. 3,3′-diaminobenzidine (DAB) as a chromogen was used for visualization of antibody-antigen interaction. Sections were counterstained with hematoxylin. Intensity of Mac-3 staining was estimated manually considering quantity and intensity of positive reactions. Final results are shown as a mean from two independent analysis.

[3] = test system: thrombin generation in platelet-poor mice plasma; experiment: Example 3 second part: thrombin generation by calibrated automated thrombogram (CAT); type: in vivo; settings: eight weeks, either dose
Procedure: Thrombin generation was measured in platelet-poor mice plasma using calibrated automated thrombography (CAT) technique as described in Hemker H C, Giesen P, Al Dieri R, Regnault V, de Smedt E, Wagenvoord R, et al. Calibrated automated thrombin generation measurement in clotting plasma. Pathophysiol Haemost Thromb 2003; 33:4-15. doi:71636. Thrombin generation was activated by mixing 21 μL of diluted plasma (1:1 with BSA5 buffer) with 7 pIL of fluorogenic substrate (Z-Gly-Gly-Arg-AMC, 16.6 mM) and 14 μL of trigger solution containing phospholipids, tissue factor and CaCl2) (4 μM, […] and 16.6 mM, respectively). In the calibration wells, the 14 μL of reagents were replaced with calibrator (102 nM). Immediately after the activation, 5 μL of the mixture was pipetted on paper disks in a flat bottom 96-well polystyrene plate and covered with 40 μL of mineral oil. Fluorescent signals were measured using the Fluoroskan Ascent software (Thermo Labsystems, Helsinki, Finland) and transformed into thrombin concentration as described in Hemker H C, Kremers R. Data management in Thrombin Generation. Thromb Res 2013; 131:3-11. doi:10.1016/j.thromres.2012.10.011. The parameters analyzed included endogenous thrombin potential (ETP), peak thrombin concentration (peak), and lag time.

matrix gla protein (MGP) = experiment: Clinical study: blood analysis of matrix gla protein carboxylation; type: in vivo, human; settings: kidney transplant patients, 360 ug/day, 8 weeks
Procedure: (§1) Participants were enrolled in a clinical trial in which the effects of vitamin K2 were determined for patients who had recently undergone a kidney transplant. At the beginning of the study, patients were subjected to a non-invasive pulse wave velocity measurement to measure arterial stiffness/flexibility, as well as blood analysis. The study participants were then instructed to receive a specific daily dose of MenaQ7 vitamin K2 menaquinone-7 (360 ug/day) for a total of 8 weeks. At the end of 8 weeks, patients were again examined with a follow-up examination, a non-invasive pulse wave velocity measurement and blood analysis and drug treatment was discontinued.
As part of the blood analysis, carboxylated matrix gla protein (MGP) was measured as a direct measure of vitamin K2 activity. The carboxylated MGP inhibits calcification of blood vessels and Vitamin K2 stimulates carboxylation of MGP.

[4] = mouse, in vivo; remark: listed apart in the source
[5] = test system: kidney transplantation patients; experiment: Clinical study: pulse wave velocity measurement of arterial stiffness; type: in vivo, human; settings: kidney transplant patients, 360 ug/day, 8 weeks
Procedure: Clinical Study to study the efficacy and safety of Vitamin K2 supplementation on arterial stiffness, the rigidity of arterial walls, in kidney transplantation patients.
A clinical study was carried out. Arterial wall property measurements were taken at t=0 and t=8 weeks and show a dramatic improvement in arterial wall flexibility. This is good support for concluding that the ingestion of vitamin K, even over this short period, is an effective way of improving endothelial function, reducing arterial stiffness and reducing calcification. […] It is surprising and unexpected because calcification is a slow progressive process and it was thought that reversing this process would also be slow and progressive.
as §1

ApoE/LDLR−/− mice = experiment: Example 3 second part: nitrite and nitrate concentration in plasma; type: in vivo; settings: eight weeks

CC(C)=CCC/C(C)=C/CC/C(C)=C/CC/C(C)=C/CC/C(C)=C/CC/C(C)=C/CC/C(C)=C/CC1=C(C)C(=O)c2ccccc2C1=O [MK-7, menaquinone-7]
vitamin K1 and K1 2,3-epoxide plasma concentration [1]: tent to decrease
concentration of MK4 2,3-epoxide in plasma ([1]; 5 mg/kg/day): maintained at similar level
plasma concentration of K2 (MK-7) ([1]; 5 mg/kg/day): dose-dependent increase
plasma concentration of MK-4 ([1]; 5 mg/kg/day): dose-dependent increase
intensity of MAC-3 staining [2]: 139±29
thrombin generation [3]: did not affect
mean reduction of levels of uncarboxylated MGP (matrix gla protein (MGP)): 55%
lipid profile, liver enzymes concentration, blood cell count [4]: did not affect
mean reduction in measured pulse-wave velocity [5]: 30%
concentration of NO3− in plasma (ApoE/LDLR−/− mice; 0.03 or 10 mg/kg b.w./day): did not change significantly
increase in NO2− concentration in plasma (ApoE/LDLR−/− mice; high dose 10 mg/kg b.w./day): ~42%
increase in NO2− concentration in plasma (ApoE/LDLR−/− mice; low dose 0.03 mg/kg b.w./day): about 58%
